Results on six compounds are retold here after patent publication US8871753B2, “Macrocyclic compounds and their use as kinase inhibitors” (Incyte Corporation, priority 2008, dated 2014).

Common to all, as to assay type: biochemical
Experiment [1] has as its target T1, human JAK1 (a.a. 837-1142) (Homo sapiens, UniProt P23458).
T1 construct: human JAK1 (a.a. 837-1142); His tag (N); made in house; host or cells: insect cells (baculovirus)
Nature of the experiment: In vitro JAK kinase assay (HTRF, phosphorylation of a biotinylated peptide), JAK1. To be noted: read-out: JAK1 IC50. In outline:
(§1)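 Phosphorylation of a biotinylated peptide by the JAK kinase domain, detected by HTRF with Eu-Py20 and SA-APC. ATP was 90 μM for JAK1, 30 μM for JAK2 and 3 μM for JAK3. Reactions ran 1 h at room temperature and were stopped with EDTA, followed by 40 min antibody binding.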
A general note: In TR-FRET formats the signal depends on donor and acceptor labels being close together.

The target of experiment [2] is T2, human JAK2 (a.a. 828-1132) (Homo sapiens, UniProt O60674).
T2 construct: JAK2 (a.a. 828-1132); His tag (N); made in house; host or cells: insect cells (baculovirus)
T2 sequence (O60674 828-1132): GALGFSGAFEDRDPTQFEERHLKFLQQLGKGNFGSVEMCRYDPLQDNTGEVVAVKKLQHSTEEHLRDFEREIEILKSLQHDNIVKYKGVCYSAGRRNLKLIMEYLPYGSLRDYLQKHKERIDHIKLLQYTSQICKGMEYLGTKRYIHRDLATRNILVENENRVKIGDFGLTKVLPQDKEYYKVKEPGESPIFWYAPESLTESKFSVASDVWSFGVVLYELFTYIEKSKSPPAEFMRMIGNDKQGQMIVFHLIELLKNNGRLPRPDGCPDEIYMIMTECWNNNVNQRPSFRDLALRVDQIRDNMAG
Description: In vitro JAK kinase assay (HTRF, phosphorylation of a biotinylated peptide), JAK2. Put shortly: as §1

Experiment [3] deals with T3, human JAK3 (a.a. 781-1124) (Homo sapiens, UniProt P52333).
T3 construct: JAK3 (a.a. 781-1124); His tag (N); made in house; host or cells: insect cells (baculovirus)
T3 sequence (P52333 781-1124): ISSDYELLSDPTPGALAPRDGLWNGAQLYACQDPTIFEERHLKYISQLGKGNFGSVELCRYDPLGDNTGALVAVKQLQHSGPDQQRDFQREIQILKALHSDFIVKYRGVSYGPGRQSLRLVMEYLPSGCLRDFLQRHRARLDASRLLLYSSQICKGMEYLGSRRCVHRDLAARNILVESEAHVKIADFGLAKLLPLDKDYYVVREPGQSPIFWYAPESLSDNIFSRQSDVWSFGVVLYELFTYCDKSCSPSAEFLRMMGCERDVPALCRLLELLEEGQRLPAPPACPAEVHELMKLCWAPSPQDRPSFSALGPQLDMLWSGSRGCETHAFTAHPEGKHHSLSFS
Nature of the experiment: In vitro JAK kinase assay (HTRF, phosphorylation of a biotinylated peptide), JAK3. In outline: as §1

The next experiment addresses TYK2 (Homo sapiens, UniProt P29597). Description: TYK2 kinase inhibition (Table A1).
Experiment [4] deals with T4, Recombinant Human Anaplastic Lymphoma Kinase (Homo sapiens, UniProt Q9UM73).
T4 construct: purchased Invitrogen, Carlsbad, Calif
T4 sequence (Q9UM73 19-1620): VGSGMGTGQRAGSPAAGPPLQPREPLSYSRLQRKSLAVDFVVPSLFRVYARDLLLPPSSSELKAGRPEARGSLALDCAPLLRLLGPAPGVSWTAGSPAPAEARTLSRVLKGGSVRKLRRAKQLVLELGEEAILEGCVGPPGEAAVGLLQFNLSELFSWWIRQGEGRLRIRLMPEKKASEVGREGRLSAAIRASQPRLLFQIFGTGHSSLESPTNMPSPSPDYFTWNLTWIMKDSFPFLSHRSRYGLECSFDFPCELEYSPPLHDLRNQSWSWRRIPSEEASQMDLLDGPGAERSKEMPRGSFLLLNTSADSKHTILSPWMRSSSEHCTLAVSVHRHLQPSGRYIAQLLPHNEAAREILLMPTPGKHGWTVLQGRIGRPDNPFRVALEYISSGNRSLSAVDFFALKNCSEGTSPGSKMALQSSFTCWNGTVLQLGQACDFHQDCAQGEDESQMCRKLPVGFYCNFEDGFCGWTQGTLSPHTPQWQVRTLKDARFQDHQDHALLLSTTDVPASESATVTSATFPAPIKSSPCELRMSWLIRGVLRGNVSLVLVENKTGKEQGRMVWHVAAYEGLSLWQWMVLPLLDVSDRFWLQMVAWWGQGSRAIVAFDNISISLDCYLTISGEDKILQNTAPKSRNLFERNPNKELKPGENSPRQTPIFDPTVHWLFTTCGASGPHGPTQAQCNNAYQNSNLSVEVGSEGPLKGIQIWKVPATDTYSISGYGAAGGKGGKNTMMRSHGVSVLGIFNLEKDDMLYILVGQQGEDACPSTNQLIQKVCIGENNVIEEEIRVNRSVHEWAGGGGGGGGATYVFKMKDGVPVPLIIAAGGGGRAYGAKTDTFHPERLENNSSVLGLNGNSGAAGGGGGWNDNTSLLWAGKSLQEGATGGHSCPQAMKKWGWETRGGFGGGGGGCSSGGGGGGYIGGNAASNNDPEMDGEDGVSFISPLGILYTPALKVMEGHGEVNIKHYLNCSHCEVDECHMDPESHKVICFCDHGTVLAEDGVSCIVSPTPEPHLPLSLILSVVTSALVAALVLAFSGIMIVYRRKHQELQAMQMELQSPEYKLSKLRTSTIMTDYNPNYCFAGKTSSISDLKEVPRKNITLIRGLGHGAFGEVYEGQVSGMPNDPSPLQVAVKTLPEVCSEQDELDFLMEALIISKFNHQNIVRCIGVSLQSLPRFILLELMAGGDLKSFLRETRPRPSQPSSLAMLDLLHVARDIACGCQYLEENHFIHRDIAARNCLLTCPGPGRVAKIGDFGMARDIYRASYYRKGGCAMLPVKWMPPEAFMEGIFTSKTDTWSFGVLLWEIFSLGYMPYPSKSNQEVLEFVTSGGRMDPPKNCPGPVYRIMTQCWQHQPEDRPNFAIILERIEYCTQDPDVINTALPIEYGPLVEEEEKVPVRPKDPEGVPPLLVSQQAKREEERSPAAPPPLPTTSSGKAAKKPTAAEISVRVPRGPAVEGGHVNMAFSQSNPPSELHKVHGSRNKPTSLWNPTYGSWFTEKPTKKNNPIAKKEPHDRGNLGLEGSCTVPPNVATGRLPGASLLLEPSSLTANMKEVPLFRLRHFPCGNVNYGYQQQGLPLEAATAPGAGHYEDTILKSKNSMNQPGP
Nature of the experiment: ALK HTRF kinase assay. In outline:
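Kinase activity of the recombinant human protein is measured on a biotinylated peptide, with a Eu-W1024 anti-phosphotyrosine antibody and streptavidin-allophycocyanin generating the homogeneous time-resolved fluorescence signal. Inhibition curves are fitted to yield IC50.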

The mark [5] stands for this setting: compound at a concentration of 500 nM or 1 mM (not specified), cells shown as percentage.

Where a name gives a salt, the structure may show the parent alone. Read-outs that look alike come from different tables or passages of the source.

T1 sequence (P23458 849-1154): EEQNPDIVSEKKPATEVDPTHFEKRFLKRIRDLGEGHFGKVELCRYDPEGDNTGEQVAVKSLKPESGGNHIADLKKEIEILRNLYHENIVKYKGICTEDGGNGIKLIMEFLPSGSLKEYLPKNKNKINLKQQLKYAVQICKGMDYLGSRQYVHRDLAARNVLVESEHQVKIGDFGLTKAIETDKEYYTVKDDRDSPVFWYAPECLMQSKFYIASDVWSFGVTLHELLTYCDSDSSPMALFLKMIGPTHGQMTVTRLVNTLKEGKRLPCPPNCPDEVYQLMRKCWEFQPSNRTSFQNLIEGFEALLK
Chain of TYK2 (P29597 whole entry): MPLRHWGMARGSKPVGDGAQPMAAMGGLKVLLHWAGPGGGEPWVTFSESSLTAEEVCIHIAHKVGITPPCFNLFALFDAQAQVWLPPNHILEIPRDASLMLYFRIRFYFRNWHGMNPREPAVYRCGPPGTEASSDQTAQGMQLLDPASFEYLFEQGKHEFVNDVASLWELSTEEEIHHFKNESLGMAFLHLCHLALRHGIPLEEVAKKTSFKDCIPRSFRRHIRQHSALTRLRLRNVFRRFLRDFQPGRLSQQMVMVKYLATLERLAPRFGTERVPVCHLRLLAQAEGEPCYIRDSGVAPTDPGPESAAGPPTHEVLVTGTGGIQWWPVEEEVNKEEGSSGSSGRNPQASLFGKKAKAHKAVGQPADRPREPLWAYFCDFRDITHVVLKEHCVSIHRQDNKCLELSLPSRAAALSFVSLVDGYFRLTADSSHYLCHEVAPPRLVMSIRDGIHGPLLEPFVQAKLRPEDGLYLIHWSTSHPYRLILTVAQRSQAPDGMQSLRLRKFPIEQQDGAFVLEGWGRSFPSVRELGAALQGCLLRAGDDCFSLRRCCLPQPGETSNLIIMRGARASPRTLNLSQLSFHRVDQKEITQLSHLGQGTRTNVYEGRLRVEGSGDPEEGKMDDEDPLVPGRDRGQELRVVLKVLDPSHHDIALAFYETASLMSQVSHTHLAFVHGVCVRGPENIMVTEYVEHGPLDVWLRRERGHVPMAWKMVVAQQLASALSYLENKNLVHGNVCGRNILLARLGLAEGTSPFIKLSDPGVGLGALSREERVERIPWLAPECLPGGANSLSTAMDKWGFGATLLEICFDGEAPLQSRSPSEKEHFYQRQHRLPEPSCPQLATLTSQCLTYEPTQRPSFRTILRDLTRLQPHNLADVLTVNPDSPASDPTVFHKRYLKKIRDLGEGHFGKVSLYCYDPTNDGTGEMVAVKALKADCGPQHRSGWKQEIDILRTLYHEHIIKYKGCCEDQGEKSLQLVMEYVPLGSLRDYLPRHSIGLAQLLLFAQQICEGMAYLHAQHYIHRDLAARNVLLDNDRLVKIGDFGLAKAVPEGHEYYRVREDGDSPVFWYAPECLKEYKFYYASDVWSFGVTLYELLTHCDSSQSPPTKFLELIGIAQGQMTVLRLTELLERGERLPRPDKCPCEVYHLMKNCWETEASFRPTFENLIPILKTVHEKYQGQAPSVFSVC

Regarding `COc1ccccc1NC(=O)Nc1ccc2cc1CCc1cccc(c1)Nc1ncc(Cl)c(n1)N2` [Example B102, N-[6-Chloro-2,4,8,22-tetraazatetracyclo[14.3.1.1(3,7).1(9,13)]docosa-1(20), 3(22),4,6,9(21),10,12,16,18-nonaen-12-yl]-N′-(2-methoxyphenyl)urea trifluoroacetate], the IC50 – broadly, the midpoint of a concentration-inhibition curve – in experiment [1] (Table B1) came out at 2 nM; in experiment [2] (Table B1), 3.8 nM; in experiment [3] (Table B1) it was 33 nM; at TYK2 (Table B1) it was 8.9 nM. For the same compound, the “ALK % of inhibition at a concentration of 500 nM or 1 mM” value (“ALK % of inhibition” for short) in experiment [4] (setting [5]) came to 54%.
The corresponding values for `O=C(Nc1ccc2cc1CCc1cncc(c1)Nc1ncc(Cl)c(n1)N2)N1CCN(Cc2ccccc2)CC1` [Example B287, 4-Benzyl-N-[6-chloro-2,4,8,18,22-pentaazatetracyclo[14.3.1.1(3,7).1(9,13)]docosa-1(20),3(22),4,6,9(21),10,12,16,18-nonaen-12-yl]piperazine-1-carboxamidetris(trifluoroacetate)] are 15 nM, 90 nM, over 200 nM, over 200 nM and 46%.
Regarding `Cc1cncc(N2CCN(C(=O)Nc3ccc4cc3CCc3cncc(c3)Nc3ncc(Cl)c(n3)N4)CC2)n1` [Example B308, N-[6-Chloro-2,4,8,18,22-pentaazatetracyclo[14.3.1.1(3,7).1(9,13)]docosa-1(20),3(22),4,6,9(21),10,12,16,18-nonaen-12-yl]-4-(6-methylpyrazin-2-yl)piperazine-1-carboxamide tris(trifluoroacetate)], the IC50 in experiment [1] (Table B1) was 16 nM; in experiment [2] (Table B1), 83 nM; in experiment [3] (Table B1), over 400 nM; at TYK2 (Table B1), 34 nM. In addition, the “ALK % of inhibition” value in experiment [4] (percentage inhibition of the example compound at a concentration of 500 nM or 1 mM (not specified which)) is listed as 79%.
Take `O=C(Nc1ccc2cc1CCc1cccc(c1)Nc1ncc(Cl)c(n1)N2)N[C@@H]1CCNC1` [Example B175, N-[6-Chloro-2,4,8,22-tetraazatetracyclo[14.3.1.1(3,7).1(9,13)]docosa-1(20),3(22),4,6,9(21),10,12,16,18-nonaen-12-yl]-N′-[(3R)-pyrrolidin-3-yl]urea dihydrochloride]: the IC50 in experiment [1] (Table B1) turned out to be 9 nM; in experiment [2] (Table B1) it was 18 nM; in experiment [3] (Table B1), 69 nM; on TYK2 (Table B1), 31 nM. Further, the “ALK % of inhibition” value in experiment [4] (setting [5]) came out at 18%.
As for `O=S1(=O)Cc2cccc(c2)Nc2nc(ncc2Cl)Nc2cccc1c2` [Example D4, 6-Chloro-15-thia-2,4,8,22-tetraazatetracyclo[14.3.1.1(3,7).1(9,13)]docosa-1(20),3(22),4,6,9(21),10,12,16,18-nonaene 15,15-dioxide trifluoroacetate], the IC50 in experiment [1] (Table D1) turned out to be 91 nM; in experiment [2] (Table D1) it was 16 nM; in experiment [3] (Table D1) it was 25 nM; against TYK2 (Table D1), 50 nM; in experiment [4] (Table D1, 90 μM ATP) it was 774 nM.
Take `O=C(Nc1ccc2cc1CCc1cccc(c1)Nc1ncc(Cl)c(n1)N2)NC1CCCC1` [Example B88, N-[6-Chloro-2,4,8,22-tetraazatetracyclo[14.3.1.1(3,7).1(9,13)]docosa-1(20), 3(22),4,6,9(21),10,12,16,18-nonaen-12-yl]-N′-cyclopentylurea trifluoroacetate]: the IC50 was determined as 0.74 nM in experiment [1] (Table B1); 1.7 nM in experiment [2] (Table B1); 29 nM in experiment [3] (Table B1); 6.3 nM on TYK2 (Table B1); 930 nM in experiment [4] (Table B1, cells without percent sign).
